The test system of data set [1] is bladder (urinating contraction). Nature of the data set: Period of inhibition of rhythmic bladder contraction (urinating contraction) in urethane-anesthetized rats. Conditions: rat, saline control 1.6 min. Format: in vivo, rat (Wistar strain, male).
Experimental: The compound of the invention was evaluated in urinating contraction of bladder by the following test method.
A male rat (Wistar strain) was fixed on his back under urethane anesthesia (1.5 g/kg, S.C.). A tracheal cannula was inserted into the rat to respire easily, and its hypogastrium was subjected to median dissection for exposing its bladder. A small opening was made on the top of the bladder to remove urine. To the bladder was inserted a polyethylene cannula. The bladder system was made to closed system by ligating urethra and ureter.
A physiological saline was injected into the bladder of rat at a rate of 0.05 mL/min. using a continuous injector so as to cause periodical urinating contraction. The intravesical pressure of the bladder was measured by means of a pressure transducer. The measured value was recorded on a pen-writing recorder. The compound to be tested was dissolved in a physiological saline and administered into the femoral vein using the polyethylene cannula.
The action for relieving urinating contraction was evaluated by measuring a period of time during which the rhythimic bladder contraction was inhibited (period of contraction inhibition).
The compounds tested were those obtained in the working examples.
Data set [2] in a line: Mouse acute toxicity LD50 (i.v.), Probit method. Format: in vivo. The settings on record: calculated by Probit method; for LD50: in vivo, iv. The source says:
The results seen in Table 4 clearly indicate that the compound of the invention is effective in relieving urinating contraction. Further, the toxicity of the compound is set forth in Table 4 in terms of LD50 (mg/kg) calculated by Probit method.

Setting [3] is: 6 mg/kg i.v., Hydrochloride, 6 mg/kg.
Setting [4] is: 6 mg/kg i.v., Fumarate, 6 mg/kg.

The values that follow come from patent US5773437A, “Alkylenediamine derivatives” (Nippon Chemiphar Co., Ltd., priority 1994, dated 1998).

Molecules are shown by their SMILES. Counter-ions that a name gives are not always drawn.

For `Cl.O=C1CN(C(CCN2CCOCC2)c2ccccc2)S(=O)(=O)c2ccccc21` (single isomer, unassigned; (+)) [Example 20[C]] [(+)-2-(3-Morpholino-1-phenylpropyl)-2H-1,2-benzothiazin-4(3H)-one 1,1-Dioxide Hydrochloride], the “Period of Contraction Inhibition” value in data set [1] (setting [3]) came to 6.0 min. In data set [2] (Hydrochloride), the “Mouse LD50” value is given as 180 mg/kg.

In the case of `O=C(O)/C=C/C(=O)O.O=C1c2ccccc2CS(=O)(=O)N1C(CCN1CCOCC1)c1ccccc1` (single isomer, unassigned; (+)) [Example 24[C]] [(+)-3-(3-Morpholino-1-phenylpropyl)-1H-2,3-benzothiazin-4(3H)-one 2,2-Dioxide Fumarate], the “Period of Contraction Inhibition” value in data set [1] (setting [4]) was found to be 0.7 min. In addition, the “Mouse LD50” value in data set [2] (Fumarate) is reported as 167 mg/kg.

As a reminder, the LD50 is the dose expected to kill half of the subjects tested. In the case of `Cl.O=C1CN(C(CCN2CCOCC2)c2ccccc2)S(=O)(=O)c2ccccc21` (single isomer, unassigned; (-)) [Example 20[B], (-)-2-(3-Morpholino-1-phenylpropyl)-2H-1,2-benzothiazin-4(3H)-one 1,1-Dioxide Hydrochloride], the LD50 in data set [2] is 140 mg/kg.

For `Cl.O=C1CN(C(CCN2CCOCC2)c2ccccc2)S(=O)(=O)c2ccccc21` (single isomer, unassigned; (-)) [Example 20[B]] [(-)-2-(3-Morpholino-1-phenylpropyl)-2H-1,2-benzothiazin-4(3H)-one 1,1-Dioxide Hydrochloride], in data set [1] (setting [3]), the “Period of Contraction Inhibition” value worked out at 0.4 min.

With `O=C(O)/C=C/C(=O)O.O=C1c2ccccc2CS(=O)(=O)N1C(CCN1CCOCC1)c1ccccc1` (single isomer, unassigned; (-)) [Example 24[B]] [(-)-3-(3-Morpholino-1-phenylpropyl)-1H-2,3-benzothiazin-4(3H)-one 2,2-Dioxide Fumarate], in data set [1] (setting [4]), the “Period of Contraction Inhibition” value is 8.5 min. For the same compound, the “Mouse LD50” value in data set [2] (Fumarate) is given as 32 mg/kg.

With `Cl.O=C1CN(CCCN2CCC(Oc3ccccc3)CC2)S(=O)(=O)c2ccccc21` [Example 1, 2-[3-(4-Phenoxypiperidino)propyl]-2H-1,2-benzothiazin-4(3H)-one 1,1-dioxide Hydrochloride], the “Period of Contraction Inhibition” value in data set [1] (1 mg/kg i.v.) stood at 2.8 min.

With `Cl.O=C1CN(CCCN2CCC(OCc3ccccc3)CC2)S(=O)(=O)c2ccccc21` [Example 2, 2-[3-(4-Benzyloxypiperidino)propyl]-2H-1,2-benzothiazin-4(3H)-one 1,1-Dioxide Hydrochloride], the “Period of Contraction Inhibition” value in data set [1] (8 mg/kg i.v.) was 16 min.

Take `O=C(O)/C=C/C(=O)O.O=C1c2ccccc2CS(=O)(=O)N1CCCN1CCC(Cc2ccccc2)CC1` [Example 3, 3-[3-(4-Benzylpiperidino)propyl]-1H-2,3-benzothiazin-4(3H)-one 2,2-Dioxide Fumarate]: the “Period of Contraction Inhibition” value in data set [1] (8 mg/kg i.v.) is 2 min.

With `Cl.O=C1CN(CCCN2CCC(Cc3ccccc3)CC2)S(=O)(=O)c2ccccc21` [Example 10, 2-[3-(4-Benzylpiperidino)propyl)-2H-1,2-benzothiazin-4(3H)-one 1,1-Dioxide Hydrochloride], in data set [1] (8 mg/kg i.v.), the “Period of Contraction Inhibition” value was 14.5 min. In data set [2], the LD50 is 3 mg/kg.

Turning to `CCCCN(CCCN1CC(=O)c2ccccc2S1(=O)=O)Cc1ccccc1.Cl` [Example 11, 2-[3-(N-Benzyl-N-butylamino)propyl]-2H-1,2-benzothiazin-4(3H)-one 1,1-Dioxide Hydrochloride], in data set [1] (8 mg/kg i.v.), the “Period of Contraction Inhibition” value was 3.9 min. Besides, in data set [2], the LD50 is 37 mg/kg.

As to `Cl.O=C1CN(CCCN2CCN(C(c3ccccc3)c3ccccc3)CC2)S(=O)(=O)c2ccccc21` [Example 12, 2-[3-(4-Diphenylmethyl-1-piperazinyl)propyl]-2H-1,2-benzothiazin-4(3H)-one 1,1-Dioxide Hydrochloride], the “Period of Contraction Inhibition” value in data set [1] (8 mg/kg i.v.) came to 2.5 min.

In the case of `Cl.O=C1CN(CCN2CCC(Cc3ccccc3)CC2)S(=O)(=O)c2ccccc21` [Example 13, 2-[2-(4-Benzylpiperidino)ethyl]-2H-1,2-benzothiazin-4(3H)-one 1,1-Dioxide Hydrochloride], in data set [1] (8 mg/kg i.v.), the “Period of Contraction Inhibition” value amounted to 18 min.

With `Cl.O=C1CN(CCCN2CCN(Cc3ccccc3)CC2)S(=O)(=O)c2ccccc21` [Example 14, 2-[3-(4-Benzyl-1-piperazinyl)propyl]-2H-1,2-benzothiazin-4(3H)-one 1,1-Dioxide Hydrochloride], in data set [1] (8 mg/kg i.v.), the “Period of Contraction Inhibition” value worked out at 12.7 min. For the same compound, in data set [2], the 50% lethal dose (LD50) was 17 mg/kg.

With `O=C1CN(CCCN2CCc3ccccc3C2)S(=O)(=O)c2ccccc21` [Example 15, 2-[3-[2-(1,2,3,4-Tetrahydroisoquinolyl)]propyl]-2H-1,2-benzothiazin-4(3H)-one 1,1-Dioxide Hydrochloride], the “Period of Contraction Inhibition” value in data set [1] (8 mg/kg i.v.) is 4.7 min. The LD50 in data set [2] was 23 mg/kg.

`Cl.O=C1CN(C(CCN2CCOCC2)c2ccccc2)S(=O)(=O)c2ccccc21` (stereo not drawn) [Example 20[A], 2-(3-Morpholino-1-phenylpropyl)-2H-1,2-benzothiazin-4(3H)-one 1,1-Dioxide Hydrochloride]: the “Period of Contraction Inhibition” value in data set [1] (12 mg/kg i.v.) worked out at 9.7 min. Besides, the LD50 in data set [2] was above 120 mg/kg.

For the compound `Cl.O=C1CN(C(CCN2CCSCC2)c2ccccc2)S(=O)(=O)c2ccccc21` (stereo not drawn) [Example 21, 2-(1-Phenyl-3-thiomorpholinopropyl)-2H-1,2-benzothiazin-4(3H)-one 1,1-Dioxide Hydrochloride], the “Period of Contraction Inhibition” value in data set [1] (10 mg/kg i.v.) stood at 7.0 min. Besides, the LD50 in data set [2] was above 100 mg/kg.

Turning to `O=C(O)/C=C/C(=O)O.O=C1c2ccccc2CS(=O)(=O)N1C(CCN1CCOCC1)c1ccccc1` (stereo not drawn) [Example 24[A], 3-(3-Morpholino-1-phenylpropyl)-1H-2,3-benzothiazin-4(3H)-one 2,2-Dioxide Fumarate], the “Period of Contraction Inhibition” value in data set [1] (12 mg/kg i.v.) was 5.6 min. In data set [2], the LD50 was 62 mg/kg.

Turning to `CS(=O)(=O)O.O=C1c2ccccc2CS(=O)(=O)N1C(CCN1CCSCC1)c1ccccc1` (stereo not drawn) [Example 26, 3-(1-Phenyl-3-thiomorpholinopropyl)-1H-2,3-benzothiazin-4(3H)-one 2,2-Dioxide Mesylate], in data set [1] (4 mg/kg i.v.), the “Period of Contraction Inhibition” value turned out to be 7.3 min. Besides, the LD50 in data set [2] is 37 mg/kg.

With `N#CC1(c2ccccc2)CCN(CCCN2CC(=O)c3ccccc3S2(=O)=O)CC1.O=C(O)/C=C/C(=O)O` [Example 32, 2-[3-(4-Cyano-4-phenylpiperidino)propyl]-2H-1,2-benzothiazin-4(3H)-one 1,1-Dioxide Fumarate], the “Period of Contraction Inhibition” value in data set [1] (8 mg/kg i.v.) was found to be 6 min.

As for `N#CC1(c2ccccc2)CCN(CCC(c2ccccc2)N2CC(=O)c3ccccc3S2(=O)=O)CC1.O=C(O)/C=C/C(=O)O` (stereo not drawn) [Example 34, 2-[3-(4-Cyano-4-phenylpiperidino)-1-phenylpropyl]-2H-1,2-benzothiazin-4(3H)-one 1,1-Dioxide Fumarate], in data set [1] (8 mg/kg i.v.), the “Period of Contraction Inhibition” value is 3 min.

As for `O=C1c2ccccc2S(=O)(=O)N1C(CCN1CCSCC1)c1ccccc1` (stereo not drawn) [Example II, 2-(1-Phenyl-3-thiomorpholino)propyl-1,2-benzisothiazol-3(2H)-one 1,1-Dioxide Fumarate], in data set [1] (5 mg/kg i.v.), the “Period of Contraction Inhibition” value is 3.8 min. Also, the LD50 in data set [2] was 47 mg/kg.

In the case of `O=C1c2ccccc2S(=O)(=O)N1C(CCN1CCOCC1)c1ccccc1` (stereo not drawn) [Example IX, 2-(3-Morpholino-1-pheny)propyl-1,2-benzisothiazol-3(2H)-one 1,1-Dioxide Fumarate], in data set [1] (5 mg/kg i.v.), the “Period of Contraction Inhibition” value was determined as 10.7 min. Also, the LD50 in data set [2] is 48 mg/kg.

`CC(=O)N1CCN(CCC(c2ccccc2)N2C(=O)c3ccccc3S2(=O)=O)CC1` (stereo not drawn) [Example XI, 2-[3-(4-Acetyl-1-piperazinyl)-1-pheny]propyl-1,2-benzisothiazol-3(2H)-one 1,1-Dioxide Fumarate]: the “Period of Contraction Inhibition” value in data set [1] (17 mg/kg i.v.) amounted to 6.0 min. The LD50 in data set [2] is 170 mg/kg.

For the compound `O=C1c2ccccc2S(=O)(=O)N1C(CCN1CCN(c2ncccn2)CC1)c1ccccc1` (stereo not drawn) [Example XII, 2-[1-Phenyl-3-[4-(2-pyrimidinyl)-1-piperazinyl]propyl-1,2-benzisothiazol-3(2H)-one 1,1-Dioxide Hydrochloride], the “Period of Contraction Inhibition” value in data set [1] (20 mg/kg i.v.) was 3.5 min. Further, the LD50 in data set [2] was above 200 mg/kg.
